{"source": "patent US20040219100A1", "about": "“Composition useful for the treatment of tumors” (priority 2003, published 2004)", "test_system": "JJ5 Breast Cancer cells", "assay": "Kinetics of binding and retention of radioactivity by the cells", "type": "cell-based, human", "description": "Breast cancer cells express up to 100-fold higher levels of EGFR than do normal epithelial tissues. EGFR expression in breast cancer bone metastasis biopsies ranged from 1-1300 fmol/mg membrane protein (approximately 400-1,000,000 receptors/cell) and was associated with high relapse rates and poor long term survival. Normal epithelial cells express <10^4 receptors/cell. For the normal breast cell line HBL-100, 8000 EGFR/cell has been reported. The expression of EGFR in breast cancer cell lines has a reported range of 800 EGFR/cell for MCF-7 cells to 10^6 EGFR/cell for MDA-MB-468 cells. […] Utilizing the Auger electron emitter ^111In was used in the initial experiments to illustrate the utility of the invention using EGF-^111In-labeled transferrin compounds. […] The cell pellet was separated from the supernatant and counted in a g-scintillation counter to determine bound (B) and free (F) radioactivity. Non-specific binding was determined by conducting the assay in 100 nM hEGF. […] Internalized fraction was measured by determining the proportion of radioactivity which could not be displaced from the cell surface by 100 nM hEGF. Cell-associated binding (surface-binding and intracellular accumulation) was expressed as a percentage of medium radioactivity bound per mg of cell study protein.", "data": [{"substance": "EGF-^111In-labeled transferrin compound: human epidermal growth factor (EGF) operatively linked (peptide or PEG linker, biotin-streptavidin) to 111In-radiolabeled human transferrin", "values": [{"measurement": "retained by the breast cancer cells", "setting": "37° C., JJ5 cells", "result": "at least 24 hours"}, {"measurement": "111In radioactivity lost from the cells in vitro", "setting": "over a 24 hour period at 37° C.", "result": "< 8", "unit": "%"}]}]}
